For this assay, the system named is TLR7 pathway. Kind of assay: TLR pathway activation: IRAK1 and IκB degradation by Western blot in OPM2 cells. It is filed as cell-based. To be noted: OPM2 cells, 10, 20 or 40 μg/ml over night. As to the method: Cells were lysed in lysis-IP-Buffer supplemented with protease inhibitors and sodium orthovanadate. 10 μg of lysate were separated by SDS-PAGE (10% polyacrylamide) and transferred to methanol activated Hypond-P PVDF-membranes (Amersham, Freiburg, Germany) by semi-dry blotting. Membranes were blocked in a 3% bovine serum albumin solution or 5% non fat dry milk solution in phosphate buffered saline (PBS) with 0.1% Tween 20 (PBT). Primary antibodies were applied in blocking solution for 1 h at room temperature or over night at 4° C. Membranes were washed in PBT and incubated with corresponding secondary antibodies in 5% non fat dry milk in PBT for 1 h at room temperature. Cells were washed with PBT, incubated with ECL solution and exposed in a Fluorchem 5500 (Biozym, Oldendorf, Germany).
OPM2 cells were suspended in full medium and cultured in 24-well plates at a cell density of 500.000 cells/ml and well. Cells were left untreated (control) or treated over night with different concentrations of Imiquimod® (10, 20 or 40 μg/ml).
OPM2 cells were cultured in 24-well plates as described above. Imiquimod® (40 μg/ml) was added to cells (except controls) for different time periods (2, 4, 6 and 8 h) and the extent of PARP1 cleavage, IRAK1, IkB-α and IkB-β degradation were determined by Western blot. α-Tubulin was used as a loading control.

Consider `CC(C)Cn1cnc2c(N)nc3ccccc3c21` [Imiquimod, 1-(2-methylpropyl)-1H-imidazo[4,5-c]quinolin-4-amine], for which the IRAK1 degradation result is given as “degraded in a concentration-dependent manner” and the IκB-α degradation result is listed as “degraded in a concentration dependent manner”.

These data come from patent US8501734B2, “Medical intervention in haematological cancers” (Oncotyrol-Center for Personalized Cancer Medicine GmbH …, priority 2008, dated 2013).
